Experimental data taken from patent publication US20230131899A1, “INHIBITORS OF MICROBIALLY INDUCED AMYLOID” (Axial Therapeutics, Inc., priority 2020, published 2023).
Read-outs that look alike come from different tables or passages of the source.

How the values were obtained:
E. coli CsgA = biological target: T1, E. coli CsgA (Escherichia coli, UniProt P28307); assay: In vitro ThioflavinT assay of CsgA aggregation (CsgA ThT Assay); format: biochemical; conditions: for remaining activity at 25 µM: compound 25 μM
T1 construct: made in house; host or cells: E. coli NEB 3016 slyD::kan, pET11d
Protocol: In vitro ThioflavinT assay to determine effects of compounds on CsgA aggregation. To assess the effects of compounds on aggregation of E. coli CsgA, a cell-free assay was performed using purified CsgA and Thioflavin T. In the assay, histidine-tagged CsgA was over-expressed in E. coli NEB 3016 slyD::kan cells harboring a pET11d vector containing a C-terminal 6× His tag. Following growth in rich media, CsgA production is induced at an OD600 of approximately 1.0 by addition of 0.5 mM IPTG (isopropyl beta-D-1-thiogalactopyranoside) followed by incubation at 37° C. for 1-4 hours with shaking at 200-250 rpm. Bacteria were resuspended in 8 M guanidine hydrochloride in 50 mM potassium phosphate buffer, pH 7.3 and lysed by sonication on ice using three 20 second intervals. The resulting lysate was incubated on a platform rocker for 1 hour at room temperature. After centrifugation at 10,000×g for 20 minutes, the supernatant was further sonicated on ice for three 20 second intervals and then incubated with nickel-nitrilotriacetic acid resin (Sigma) at room temperature for 1 hour in a 50 mL conical tube on a platform rocker. The resin was washed and pelleted 5 times with 45 mL 8 M guanidine in 50 mM potassium phosphate buffer pH 7.3. The resin was further washed and pelleted two times with 8 M guanidine hydrochloride in 50 mM potassium phosphate buffer pH 7.3 containing 12.5 mM imidazole. Purified CsgA protein was eluted two times with 5 mL of 6-8 M guanidine hydrochloride in 50 mM potassium phosphate buffer, pH 7.3 containing 250 mM imidazole. The eluted protein was aliquoted with 150 μL per aliquot, snap frozen in liquid nitrogen, and stored at −80 C. In order to obtain monomeric CsgA, the purified CsgA protein was thawed and passed through two pre-chilled desalting columns (Zeba) to remove imidazole and guanidine. The buffer exchanged protein was loaded onto a 30-kDa centrifugal filter unit (Amicon) and spun for 30 minutes at 7500×g to remove dimers and other oligomers. Protein concentration was assessed by the NanoDrop technique (Thermo Scientific), as is familiar to one skilled in the art. The CsgA aggregation assay was conducted in 96-well black non-binding surface or white untreated microplates with 20-40 μM ThioflavinT, 50 mM potassium phosphate buffer pH 7.3, 1% DMSO, CsgA at 2-20 μM, and compounds at 3.125-200 uM. The vehicle control wells contain all components of the assay except test compounds and represent the level of CsgA aggregation in the absence of any inhibitor or accelerator. Plates were incubated at room temperature in a Tecan Nano F200 plate reader with excitation at 438 nm using a 439 nm filter with a bandwidth of 8 nm, and emission at 495 nm with a 490 nm filter with a bandwidth of 10 nm, or in a SpectraMax M5, SpectraMax M2 or SpectraMax® i3X (Molecular Devices, San Jose, Calif.) spectrophotometer with excitation at 438 nm and emission at 495 nm. During the assay, plates were shaken initially for 5 seconds and subsequently for 3 seconds prior to fluorescent readings. Readings were performed every 15 minutes for up to 1005 minutes. The effect of compounds on CsgA aggregation in the assay was determined with data from 0-17 hours. Fluorescence values for each compound with CsgA were first adjusted by subtracting the average fluorescence of the compound in the absence of CsgA or in the presence of CsgA and compound at time 0 or 15 minutes. The data were analyzed in several ways:
1. The adjusted ThT fluorescence values were normalized by dividing them by the average fluorescence in the vehicle control wells containing CsgA. The median normalized fluorescence from 6-6.5 hours or 8-9 hours with the compound was expressed as a percentage of the median fluorescence observed in vehicle controls over the same time period. Percent inhibition of CsgA aggregation by a compound was determined by subtracting the percent average fluorescence with the compound relative to the vehicle controls from 100%. […]

[1] = test system: CsgA gene expression (csgBAC promoter-GFP reporter) in E. coli UTI89; assay: In vitro live cell fluorescent reporter assay of CsgA transcription (Reporter Assay); format: cell-based; conditions: Escherichia coli
Protocol: In vitro live cell fluorescent reporter assay to determine effects of compounds on CsgA transcription. To assess the impact of compounds on CsgA gene expression, a live cell assay was performed using an engineered strain of E. coli UTI89 with a fluorescent CsgA gene expression reporter driven by the csgBAC promoter. In the reporter strain, a gene encoding Green Fluorescent Protein (GFP) was placed immediately downstream of the full intergenic region between csgDEF and csgBAC, containing the csgBAC promoter and other transcriptional regulatory elements, and inserted in single copy into the E. coli UTI89 chromosome, as described in Cegelski et. al., “Small-molecule inhibitors target Escherichia coli amyloid biogenesis and biofilm formation,” Nat. Chem. Bio., 25 Oct. 2009. With this construct, GFP expression in the reporter strain was under the same regulation as CsgA expression. The reporter strain was struck out on a YESCA agar plate (1 g/L yeast extract, 10 g/L casamino acids, 20 g/L Bacto Agar) and grown at about 27° C. for 2 days, or until single colonies were sufficiently large to pick. A single colony of the reporter strain was used to inoculate 5 mL of YESCA broth (1 g/L yeast extract, 10 g/L casamino acids), which was grown overnight at about 27° C. The inoculum was diluted 1:10 in YESCA broth and the optical density at 600 nm (OD600) was measured on a SpectraMax M2 or M5e (Molecular Devices, San Jose, Calif.) spectrophotometer in cuvettes. The culture was then further diluted to achieve a final OD600 of 0.003, which was confirmed by measurement of the OD600. Compounds were diluted in dimethyl sulfoxide (DMSO) and plated on black clear-bottomed tissue culture-treated 96-well plates with 1.5 μL/well for final test concentrations from 0.14-100 μM. All assay wells, including vehicle controls and positive controls for inhibition, included 1% DMSO final. Vehicle control wells consisted of DMSO and the reporter strain to assess the expression of the reporter strain in the assay in the absence of any compound. […] 148.5 μL culture at OD600 0.003 in YESCA broth was added to all wells for 150 μL final volume. Plates were incubated at 27° C. for 20 hours, then GFP fluorescence signal for each well was read on a Spectramax M2 or M5e plate reader with excitation at 485 nm, emission at 525 nm, and a cutoff at 515 nm. OD600 for each well was also measured on the Spectramax M2 or M5e plate reader. […] Background fluorescence was subtracted from all wells, then fluorescence signal for each well was normalized to the mean of the vehicle control wells. Normalized dose response curves were plotted for each compound, and compound inhibition of CsgA transcription was determined by assessing the curve-fit IC50, bottom, top, span (top-bottom), and Hill slope using GraphPad Prism software version 8.1.1 (GraphPad Software, San Diego, Calif.). An additional metric used to evaluate compounds was the concentration at which the curve reached 50% of the expression level of the vehicle control. This was written as a custom analysis in GraphPad Prism according to the formula X[50], or the X value at which Y=50, ie, the compound concentration at which fluorescence of the reporter strain was calculated to reach 50% of the vehicle control fluorescence. Separately from the fluorescence data, OD600 values were normalized to the mean of the vehicle control wells, and dose response curves were plotted for each compound. OD600 reduction of greater than 10% indicated compounds had some toxicity or negative impact on bacterial growth. […]

[2] = read-out: CsgA ThT Assay (2 μM CsgA) % Control Bmax 25 μM, activity range, class symbol, CsgA 2 μM, white plates
[3] = read-out: CsgA ThT Assay (2 μM CsgA) % Control Bmax 25 μM, mean Bmax as percentage of DMSO control, CsgA 2 μM, white plates
[4] = read-out: CsgA ThT Assay (2 μM CsgA) % Control Bmax 100 μM, activity range, class symbol, CsgA 2 μM, white plates, compound 100 μM
[5] = read-out: CsgA ThT Assay (2 μM CsgA) % Control Bmax 100 μM, mean Bmax as percentage of DMSO control, CsgA 2 μM, white plates, compound 100 μM
[6] = read-out: Reporter Assay Abs IC50 (μM), median Abs IC50 in the CsgA reporter assay, N/A = maximum expression reduction is <50% of control
[7] = read-out: Reporter Assay Abs IC50, activity range, class symbol
[8] = read-out: CsgA ThT Assay (10 μM CsgA) % Control AUC at 1005 minutes, 25 μM (activity range), CsgA 10 μM, black plates, 1005 minutes, class symbol
[9] = read-out: CsgA ThT Assay (10 μM CsgA) % Control AUC at 1005 minutes, 25 μM, mean AUC as % of DMSO control, CsgA 10 μM, black plates, 1005 minutes
[10] = read-out: Reporter Assay Abs IC50 (activity range), median Abs IC50 in the CsgA reporter assay, class symbol
[11] = read-out: CsgA ThT Assay (10 μM CsgA) % Control AUC at 1005 minutes, 100 μM (activity range), CsgA 10 μM, black plates, compound 100 μM, 1005 minutes, class symbol

T1 sequence (P28307 23-151): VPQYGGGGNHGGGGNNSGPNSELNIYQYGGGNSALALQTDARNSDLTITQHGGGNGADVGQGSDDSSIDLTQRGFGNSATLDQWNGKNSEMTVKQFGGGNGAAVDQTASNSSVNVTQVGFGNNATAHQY

Row | Compound | remaining activity at 25 µM (E. coli CsgA; [2]) [%] | remaining activity at 25 µM (E. coli CsgA; [3]) [%] | remaining activity at 100 µM (E. coli CsgA; [4]) [%] | remaining activity at 100 µM (E. coli CsgA; [5]) [%] | IC50 [1, 6] [µM] | IC50 [1, 7] [µM] | remaining activity at 25 µM (E. coli CsgA; [8]) [%] | remaining activity at 25 µM (E. coli CsgA; [9]) [%] | IC50 [1, 10] [µM] | remaining activity at 100 µM (E. coli CsgA; [11]) [%] | remaining activity at 100 µM (E. coli CsgA; read-out: CsgA ThT Assay (10 μM CsgA) % Control AUC at 1005 minutes, 100 μM, mean AUC as % of DMSO control, CsgA 10 μM, black plates, compound 100 μM, 1005 minutes) [%] | CsgA ThT Assay (10 μM CsgA) % Control AUC at 1005 minutes, 100 μM (E. coli CsgA; mean AUC as % of DMSO control, CsgA 10 μM, black plates, compound 100 μM, 1005 minutes) [%]
1 | O=C(O)C1CN(Cc2ccccc2)c2c(-c3cccc(C(F)(F)F)c3)c(Cc3cccc4ncccc34)c(Cl)c(=O)n21 (stereo not shown) [Compound 211, 1-benzyl-6-chloro-5-oxo-7-(quinolin-5-ylmethyl)-8-(3-(trifluoromethyl)phenyl)-1,2,3,5-tetrahydroimidazo[1,2-a]pyridine-3-carboxylic acid] | > 60 | 85 | > 60 | 65 | 20.6 | > 10 |  |  |  |  |  | 
2 | O=C(O)C1CNc2c(-c3cccc(C(F)(F)F)c3)c(Cc3cccc4ccccc34)c(Br)c(=O)n21 (stereo not shown) [Compound 133, 6-bromo-7-(naphthalen-1-ylmethyl)-5-oxo-8-(3-(trifluoromethyl)phenyl)-1,2,3,5-tetrahydroimidazo[1,2-a]pyridine-3-carboxylic acid] | > 60 | 71 | 31 to 60 | 36 | 3.7 | 1.3 to 4.5 |  |  |  |  |  | 
3 | COc1ccc(CN2C[C@H](C(=O)O)n3c(c(-c4cccc(C(F)(F)F)c4)c(Cc4cccc5ccccc45)cc3=O)S2(=O)=O)cc1 (single isomer, unassigned) [Compound 026b] |  |  |  |  | 2.8 |  | 31 to 60 | 47 | 1.3 to 4.5 |  |  | 
4 | CCCN1CC(C(=O)O)n2c(c(-c3cccc(C(F)(F)F)c3)c(Cc3cccc4ccccc34)c(CC)c2=O)S1(=O)=O (stereo not shown) [Compound 117, 7-ethyl-8-(naphthalen-1-ylmethyl)-6-oxo-2-propyl-9-(3-(trifluoromethyl)phenyl)-3,4-dihydro-2H,6H-pyrido[1,2-e][1,2,5]thiadiazine-4-carboxylic acid 1,1-dioxide] |  |  |  |  | 5.9 |  | 31 to 60 | 32 | 4.6 to 10 | 11 to 31 | 22 | 
5 | CC(C)(C)c1cccc(Cc2c(-c3cccc(C(F)(F)F)c3)c3n(c(=O)c2Cl)C(C(=O)O)CN3Cc2ccccc2)c1 (stereo not shown) [Compound 215, 1-benzyl-7-(3-(tert-butyl)benzyl)-6-chloro-5-oxo-8-(3-(trifluoromethyl)phenyl)-1,2,3,5-tetrahydroimidazo[1,2-a]pyridine-3-carboxylic acid] | > 60 | 97 | > 60 | 61 | 1.3 | 1.3 to 4.5 |  |  |  |  |  | 
6 | CCCCN1CC(C(=O)O)n2c(c(-c3cccc(C(F)(F)F)c3)c(Cc3cccc4ccccc34)cc2=O)S1(=O)=O (single isomer, unassigned) [Compound 021a, 2-butyl-8-(naphthalen-1-ylmethyl)-6-oxo-9-(3-(trifluoromethyl)phenyl)-3,4-dihydro-2H,6H-pyrido[1,2-e][1,2,5]thiadiazine-4-carboxylic acid 1,1-dioxide] |  |  |  |  | 3.3 |  | 31 to 60 | 36 | 1.3 to 4.5 | > 60 |  | 73
7 | N#Cc1c(Cc2cccc3ccccc23)c(-c2cccc(C(F)(F)F)c2)c2n(c1=O)C(C(=O)O)CN2Cc1ccccc1 (stereo not shown) [Compound 185, 1-benzyl-6-cyano-7-(naphthalen-1-ylmethyl)-5-oxo-8-(3-(trifluoromethyl)phenyl)-1,2,3,5-tetrahydroimidazo[1,2-a]pyridine-3-carboxylic acid] | > 60 | 69 | > 60 | 91 | 1.8 | 1.3 to 4.5 |  |  |  |  |  | 
